Experiment: xn = mol fraction of the nth substance listed
Conditions: 100 kPa, Liquid; for mass density: Vibrating tube method; for viscosity: Capillary tube (Ostwald / Ubbelohde) method; for speed of sound: Frequency=3 MHz, Single path-length method

C=CCn1cc[n+](C)c1.O=S(=O)([N-]S(=O)(=O)C(F)(F)F)C(F)(F)F + CCCO
Conditions	mass density [kg/m3]	speed of sound [m/s]	viscosity [mPa·s]
318.15 K, x1 = 0.5003	1326	–	–
318.15 K, x1 = 0.6007	1369	–	–
318.15 K, x1 = 0.6971	1403	–	–
318.15 K, x1 = 0.8024	1434	–	–
318.15 K, x1 = 0.8974	1457	–	–
318.15 K, x1 = 1	1479	–	–
323.15 K, x1 = 0.04962	889	1113	1.421
323.15 K, x1 = 0.1003	977	1108	1.813
323.15 K, x1 = 0.1995	1107	1115.1	2.632
323.15 K, x1 = 0.2987	1199	1127.5	3.453
323.15 K, x1 = 0.399	1268	1138.3	4.402
323.15 K, x1 = 0.5003	1321	1150.3	5.384
323.15 K, x1 = 0.6007	1364	1158.2	6.806
323.15 K, x1 = 0.6971	1398	1166.3	8.132
323.15 K, x1 = 0.8024	1429	1174.3	9.945
323.15 K, x1 = 0.8974	1452	1179.6	12.12
323.15 K, x1 = 1	1474	1185.2	15.19
328.15 K, x1 = 0.04962	884	1097.9	1.284
328.15 K, x1 = 0.1003	973	1094	1.635
328.15 K, x1 = 0.1995	1102	1102.2	2.37
328.15 K, x1 = 0.2987	1194	1115.3	3.106
328.15 K, x1 = 0.399	1263	1126.6	3.956
328.15 K, x1 = 0.5003	1316	1138.8	4.83
328.15 K, x1 = 0.6007	1359	1147	6.09
328.15 K, x1 = 0.6971	1393	1155.3	7.262
328.15 K, x1 = 0.8024	1424	1163.5	8.834
328.15 K, x1 = 0.8974	1447	1168.9	10.73
328.15 K, x1 = 1	1469	1174.7	13.23
333.15 K, x1 = 0.04962	880	1082.7	1.166
333.15 K, x1 = 0.1003	968	1080	1.48
333.15 K, x1 = 0.1995	1097	1089.5	2.146
333.15 K, x1 = 0.2987	1189	1103.1	2.812
333.15 K, x1 = 0.399	1258	1114.9	3.573
333.15 K, x1 = 0.5003	1312	1127.5	4.36
333.15 K, x1 = 0.6007	1354	1135.9	5.485
333.15 K, x1 = 0.6971	1388	1144.5	6.518
333.15 K, x1 = 0.8024	1419	1152.8	7.905
333.15 K, x1 = 0.8974	1442	1158.4	9.475
333.15 K, x1 = 1	1465	1164.2	11.62
338.15 K, x1 = 0.04962	875	1067.5	1.061
338.15 K, x1 = 0.1003	963	1065.9	1.347
338.15 K, x1 = 0.1995	1092	1076.7	1.953
338.15 K, x1 = 0.2987	1184	1091	2.558
338.15 K, x1 = 0.399	1253	1103.4	3.252
338.15 K, x1 = 0.5003	1307	1116.2	3.957
338.15 K, x1 = 0.6007	1349	1124.9	4.964
338.15 K, x1 = 0.6971	1383	1133.8	5.889
338.15 K, x1 = 0.8024	1414	1142.2	7.111
338.15 K, x1 = 0.8974	1437	1147.9	8.498
338.15 K, x1 = 1	1460	1153.8	10.28
343.15 K, x1 = 0.04962	870	1052.3	0.971
343.15 K, x1 = 0.1003	958	1052.2	1.23
343.15 K, x1 = 0.1995	1088	1064.2	1.786
343.15 K, x1 = 0.2987	1179	1078.9	2.342
343.15 K, x1 = 0.399	1248	1092.1	2.974
343.15 K, x1 = 0.5003	1302	1105	3.611
343.15 K, x1 = 0.6007	1345	1114	4.521
343.15 K, x1 = 0.6971	1378	1123.3	5.348
343.15 K, x1 = 0.8024	1409	1131.9	6.435
343.15 K, x1 = 0.8974	1433	1137.8	7.661
343.15 K, x1 = 1	1455	1143.5	9.125

Reference: the NIST ThermoML archive (doi:10.1021/acs.jced.8b00537)
